Reference: patent EP1795186B1, “Flupirtin comprising medicament formulation with a controlled release of the active agent” (TEVA GmbH, priority 2005, dated 2007)

Test: Solubility in hydrochloric acid (gastric juice)
Type: physicochemical

## CCOC(=O)Nc1ccc(NCc2ccc(F)cc2)nc1N [Flupirtinmaleat]
  Löslichkeit in Salzsäure (Magensaft): löslich
